The values that follow come from patent publication US20250228865A1, “COMPOUNDS FOR ENHANCING READ THROUGH OF GENES CONTAINING PREMATURE TERMINATION CODONS AND METHODS FOR MAKING AND USING THE SAME” (Sanofi US Services Inc., priority 2022, published 2025).

In test [1] the test system is recombinant human CFTR carrying the premature stop codon (PTC) mutation G542X. Briefly: CFTR-PTC mutant translation readthrough, Nanoluc tagged CFTR luminescence (G542X cell line). The settings on record: in combination with G418, G542X cell line; for CFTR G542X ACTIVITY Fold 10 μM G-418: fold over 10 μM G-418; for EC50: 16HBE cells. Type of test: cell-based. The gist of the method:
(§1)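 Readthrough is the 48 h compound-induced luminescence increase scaled to that of maximal G418 (125-250 μM). Compounds run from 50 μM final in 2-fold steps, ±10 μM G418, on 16HBE lines carrying Nanoluc-tagged CFTR G542X (extracellular loop 4 tag) or R1162X (C-terminal tag), with 3 μM VX-809 present.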

The test system of test [2] is recombinant human CFTR carrying the premature stop codon (PTC) mutation R1162X. Nature of the test: CFTR-PTC mutant translation readthrough, Nanoluc tagged CFTR luminescence (R1162X cell line). Type of test: cell-based. As to conditions: for CFTR R1162X ACTIVITY Fold 10 μM G-418: fold over 10 μM G-418, in combination with G418; for EC50: in combination with G418, 16HBE cells, read-out: CFTR R1162X ACTIVITY EC50. The gist of the method:
as §1

As for `NS(=O)(=O)N1CCN(c2ncc(OCc3c(Cl)cccc3Cl)cn2)CC1` [4-[5-[(2,6-dichlorophenyl)methoxy]pyrimidin-2-yl]piperazine-1-sulfonamide], in test [1], the “CFTR G542X ACTIVITY Fold 10 μM G-418” value is given as “A′ (A′ = ≥10X)” and the EC50 (in general, the concentration that produces a half-maximal response) is 1000 to 10000 nM. For the same compound, in test [2], the “CFTR R1162X ACTIVITY Fold 10 μM G-418” value is “A′ (A′ = ≥10X)” and the EC50 was above 10000 nM.

In the case of `O=C(O)C1CN(c2ncc(OCc3c(Cl)cccc3C(F)(F)F)cn2)CCO1` (centres unmarked) [4-[5-[[2-chloro-6-(trifluoromethyl)phenyl]methoxy]pyrimidin-], in test [1], the “CFTR G542X ACTIVITY Fold 10 μM G-418” value is recorded as “C′ (C′ = <5X)” and the EC50 fell in the range of 1000 to 10000 nM. In addition, the 50% effective concentration (EC50) in test [2] is below 1000 nM.

`Cc1cccc(C(F)(F)F)c1COc1cnc(N2CCNC(=O)C2)nc1` [4-[5-[[2-methyl-6-(trifluoromethyl)phenyl]methoxy]pyrimidin-2-yl]piperazin-2-one]: in test [1], the “CFTR G542X ACTIVITY Fold 10 μM G-418” value is recorded as “A′ (A′ = ≥10X)” and the EC50 was below 1000 nM. Moreover, in test [2], the “CFTR R1162X ACTIVITY Fold 10 μM G-418” value is “A′ (A′ = ≥10X)” and the EC50 was below 1000 nM.

`CN(CCCCO)c1ncc(OCc2c(Cl)cccc2Cl)cn1` [4-[[5-[(2,6-dichlorophenyl)methoxy]pyrimidin-2-yl]-methyl-amino]butan-1-ol]: in test [1], the “CFTR G542X ACTIVITY Fold 10 μM G-418” value is listed as “A′ (A′ = ≥10X)” and the concentration giving a half-maximal response (EC50) is below 1000 nM. In test [2], the “CFTR R1162X ACTIVITY Fold 10 μM G-418” value is “A′ (A′ = ≥10X)” and the EC50 was below 1000 nM.

Regarding `NCC1CN(c2ccc(OCc3c(Cl)cccc3Cl)cc2)C(=O)O1` (centres unmarked) [5-(aminomethyl)-3-[4-[(2,6-dichlorophenyl)methoxy]phenyl]oxazolidin-2-one], in test [1], the “CFTR G542X ACTIVITY Fold 10 μM G-418” value is on record as “B′ (B′ = ≥5X to <10X)” and the EC50 lay within 1000 to 10000 nM. In test [2], the “CFTR R1162X ACTIVITY Fold 10 μM G-418” value was “A′ (A′ = ≥10X)” and the 50% effective concentration (EC50) is above 10000 nM.

For `Cn1cc(-c2ccc(OCc3c(Cl)cccc3Cl)cn2)nn1` [5-[(2,6-dichlorophenyl)methoxy]-2-(1-methyltriazol-4-yl)pyridine], in test [1], the “CFTR G542X ACTIVITY Fold 10 μM G-418” value is “A′ (A′ = ≥10X)” and the EC50 was in the range of 1000 to 10000 nM. Moreover, in test [2], the “CFTR R1162X ACTIVITY Fold 10 μM G-418” value is given as “A′ (A′ = ≥10X)” and the EC50 was 1000 to 10000 nM.

Regarding `Clc1cccc(Cl)c1COc1cnc(-c2nnn[nH]2)nc1` [5-[(2,6-dichlorophenyl)methoxy]-2-(1H-tetrazol-5-yl)pyrimidine], the half-maximal effective concentration (EC50) in test [1] and in test [2] was above 10000 nM each time.

Regarding `COC1CCN(c2ncc(OCc3c(Cl)cccc3Cl)cn2)C1` (centres unmarked) [5-[(2,6-dichlorophenyl)methoxy]-2-(3-methoxypyrrolidin-1-yl)pyrimidine], in test [1], the “CFTR G542X ACTIVITY Fold 10 μM G-418” value was “A′ (A′ = ≥10X)” and the concentration for a half-maximal effect (EC50) was in the range of 1000 to 10000 nM. Also, in test [2], the “CFTR R1162X ACTIVITY Fold 10 μM G-418” value is “B′ (B′ = ≥5X to <10X)” and the concentration for a half-maximal effect (EC50) lay within 1000 to 10000 nM.

Regarding `Clc1cccc(Cl)c1COc1cnc(-n2cc(-c3ccccn3)nn2)nc1` [5-[(2,6-dichlorophenyl)methoxy]-2-[4-(2-pyridyl)triazol-1-yl]pyrimidine], in test [1], the “CFTR G542X ACTIVITY Fold 10 μM G-418” value is on record as “A′ (A′ = ≥10X)” and the half-maximal effective concentration (EC50) is below 1000 nM. Also, in test [2], the “CFTR R1162X ACTIVITY Fold 10 μM G-418” value is “A′ (A′ = ≥10X)” and the half-maximal effective concentration (EC50) is below 1000 nM.

As for `Clc1cccc(Cl)c1COc1cnc(-n2ncc(-c3ccccn3)n2)nc1` [5-[(2,6-dichlorophenyl)methoxy]-2-[4-(2-pyridyl)triazol-2-yl]pyrimidine], in test [1], the “CFTR G542X ACTIVITY Fold 10 μM G-418” value is “A′ (A′ = ≥10X)” and the EC50 lay within 1000 to 10000 nM. Moreover, in test [2], the “CFTR R1162X ACTIVITY Fold 10 μM G-418” value was “A′ (A′ = ≥10X)” and the EC50 was 1000 to 10000 nM.

Regarding `NC(=O)c1ccc(OCc2c(Cl)cccc2Cl)cn1` [5-[(2,6-dichlorophenyl)methoxy]pyridine-2-carboxamide], in test [1], the “CFTR G542X ACTIVITY Fold 10 μM G-418” value is on record as “A′ (A′ = ≥10X)” and the EC50 was 1000 to 10000 nM. For the same compound, in test [2], the “CFTR R1162X ACTIVITY Fold 10 μM G-418” value is reported as “B′ (B′ = ≥5X to <10X)” and the concentration for a half-maximal effect (EC50) lay within 1000 to 10000 nM.
